Values after ≈ are worked out from the molar mass of the structure shown.
Experiments:
[1] = Brincidofovir equilibrium solubility in formulation vehicles; format: physicochemical
Procedure: The recovery of brincidofovir in the sample supernatant was determined at different time points to establish when the solubility equilibrium was reached. Two samples of vehicle #57, were saturated with brincidofovir. […] Consequently, the pH had to be brought up close to the target pH before more brincidofovir was added.

[2] = Mass balance (excretion of total radioactivity) after 2-h IV infusion of [^14C]brincidofovir; format: in vivo, male Sprague Dawley rats
Procedure: All animals were obtained from Hilltop Lab Animals, Inc. (Scottdale, Pa.). Rats weighed between 214 and 265 g at dosing. […] Three dosing formulations (one for high dose IV, one for low dose IV, and one for PO dose) were prepared at QPS on the day of dosing. […] The IV dose formulation for Group 5 and the PO dose formulation for Groups 6 and 7 contained higher concentration of buffer so that the final buffer concentration was approximately 10 mM in all dose formulations. […] Urine samples were collected from each animal into pre-labeled urine collection tubes at pre-dose (overnight) and at intervals of 0-8 h, 8-24 h, and at every subsequent 24 h interval until 168 h post-dose. All urine specimens were collected over dry ice. The total weight of each urine collection was documented, and the samples were stored frozen at approximately −70° C. until LSC analysis. Samples were maintained at approximately −70° C. following analysis, and were saved for further analysis, to be conducted under a separate protocol. Feces samples were collected from each animal into a pre-labeled feces collection tube at pre-dose (overnight) and at 24 h intervals post-dose until 168 h post-dose. Feces specimens were collected over dry ice and the total weight of each feces sample was documented. Feces samples were stored at approximately −70° C. until homogenization and LSC analysis, were maintained at approximately −70° C. following analysis, and were saved for further analysis, to be conducted under a separate protocol. Feces were homogenized and analyzed for total radioactivity content. […] The actual weights of the individual aliquots and the amount of solvent used in homogenization were recorded. Pre-weighed portions of each feces homogenate were placed into a CombustoCone® that contained a CombustoPad®, allowed to dry over-night in a fume hood, and were burned completely in the sample oxidizer. […] Volumes or weights of sample aliquots were documented in the study records.

With `CCCCCCCCCCCCCCCCOCCCOP(=O)(O)CO[C@H](CO)Cn1ccc(N)nc1=O` [Brincidofovir] the solubility thermodynamic ([1]; pH 6.9, thermodynamic from solid) was about 25 mg/mL (≈ 44.5 mM) and the solubility thermodynamic ([1]; pH 8, thermodynamic from solid) was over 270 mg/mL.
In the case of `CCCCCCCCCCCCCCCCOCCCOP(=O)(O)CO[C@H](CO)Cn1ccc(N)nc1=O` [[^14C]brincidofovir], the “Radioactivity recovered in feces” value ([2]; 15 mg/kg 2-h IV, 168 h) is reported as 42.2 % of administered dose, the “Radioactivity recovered in urine” value ([2]; 15 mg/kg 2-h IV, 168 h) is reported as 51.2 % of administered dose and the “Total recovery in urine and feces combined” value ([2]; 168 h) is reported as 93.5 % of the dose. For the same molecule, the “Percent Recovery of total radioactivity” value ([2]; Feces 0-24 h, Mean, 15 mg/kg IV) was 36.7 % Dose, the “Percent Recovery of total radioactivity” value ([2]; Feces 0-24 h, Rat 01, 15 mg/kg IV) was 37.3 % Dose and the “Percent Recovery of total radioactivity” value ([2]; Feces 0-24 h, Rat 02, 15 mg/kg IV) was 37.6 % Dose. The “Percent Recovery of total radioactivity” value ([2]; Feces 0-24 h, Rat 03, 15 mg/kg IV) was 35.1 % Dose, the “Percent Recovery of total radioactivity” value ([2]; Feces 24-48 h, Mean, 15 mg/kg IV) was 3.8 % Dose and the “Percent Recovery of total radioactivity” value ([2]; Feces 24-48 h, Rat 01, 15 mg/kg IV) was 3.4 % Dose. The “Percent Recovery of total radioactivity” value ([2]; Feces 24-48 h, Rat 02, 15 mg/kg IV) was 4.6 % Dose, the “Percent Recovery of total radioactivity” value ([2]; Feces 24-48 h, Rat 03, 15 mg/kg IV) was 3.5 % Dose and the “Percent Recovery of total radioactivity” value ([2]; Feces 48-72 h, Mean, 15 mg/kg IV) was 0.9 % Dose. For the same molecule, the “Percent Recovery of total radioactivity” value ([2]; Feces 48-72 h, Rat 01, 15 mg/kg IV) was 0.9 % Dose, the “Percent Recovery of total radioactivity” value ([2]; Feces 48-72 h, Rat 02, 15 mg/kg IV) was 1.0 % Dose and the “Percent Recovery of total radioactivity” value ([2]; Feces 48-72 h, Rat 03, 15 mg/kg IV) was 0.8 % Dose. For the same molecule, the “Percent Recovery of total radioactivity” value ([2]; Feces 72-96 h, Mean, 15 mg/kg IV) was 0.4 % Dose, the “Percent Recovery of total radioactivity” value ([2]; Feces 72-96 h, Rat 01, 15 mg/kg IV) was 0.4 % Dose and the “Percent Recovery of total radioactivity” value ([2]; Feces 72-96 h, Rat 02, 15 mg/kg IV) was 0.4 % Dose. The “Percent Recovery of total radioactivity” value ([2]; Feces 72-96 h, Rat 03, 15 mg/kg IV) was 0.4 % Dose, the “Percent Recovery of total radioactivity” value ([2]; Feces 96-120 h, Mean, 15 mg/kg IV) was 0.2 % Dose and the “Percent Recovery of total radioactivity” value ([2]; Feces 96-120 h, Rat 01, 15 mg/kg IV) was 0.2 % Dose. The “Percent Recovery of total radioactivity” value ([2]; Feces 96-120 h, Rat 02, 15 mg/kg IV) was 0.2 % Dose, the “Percent Recovery of total radioactivity” value ([2]; Feces 96-120 h, Rat 03, 15 mg/kg IV) was 0.2 % Dose and the “Percent Recovery of total radioactivity” value ([2]; Feces 120-144 h, Mean, 15 mg/kg IV) was 0.1 % Dose. For the same molecule, the “Percent Recovery of total radioactivity” value ([2]; Feces 120-144 h, Rat 01, 15 mg/kg IV) was 0.1 % Dose, the “Percent Recovery of total radioactivity” value ([2]; Feces 120-144 h, Rat 02, 15 mg/kg IV) was 0.1 % Dose and the “Percent Recovery of total radioactivity” value ([2]; Feces 120-144 h, Rat 03, 15 mg/kg IV) was 0.1 % Dose. For the same molecule, the “Percent Recovery of total radioactivity” value ([2]; Feces 144-168 h, Mean, 15 mg/kg IV) was 0.1 % Dose, the “Percent Recovery of total radioactivity” value ([2]; Feces 144-168 h, Rat 01, 15 mg/kg IV) was 0.1 % Dose and the “Percent Recovery of total radioactivity” value ([2]; Feces 144-168 h, Rat 02, 15 mg/kg IV) was 0.1 % Dose. The “Percent Recovery of total radioactivity” value ([2]; Feces 144-168 h, Rat 03, 15 mg/kg IV) was 0.1 % Dose, the “Percent Recovery of total radioactivity” value ([2]; Feces Subtotal (0-168 h), Mean, 15 mg/kg IV) was 42.2 % Dose and the “Percent Recovery of total radioactivity” value ([2]; Feces Subtotal (0-168 h), Rat 01, 15 mg/kg IV) was 42.4 % Dose. The “Percent Recovery of total radioactivity” value ([2]; Feces Subtotal (0-168 h), Rat 02, 15 mg/kg IV) was 44.2 % Dose, the “Percent Recovery of total radioactivity” value ([2]; Feces Subtotal (0-168 h), Rat 03, 15 mg/kg IV) was 40.2 % Dose and the “Percent Recovery of total radioactivity” value ([2]; Total urine + feces (0-168 h), Mean, 15 mg/kg IV) was 93.5 % Dose. For the same molecule, the “Percent Recovery of total radioactivity” value ([2]; Total urine + feces (0-168 h), Rat 01, 15 mg/kg IV) was 93.6 % Dose, the “Percent Recovery of total radioactivity” value ([2]; Total urine + feces (0-168 h), Rat 02, 15 mg/kg IV) was 91.6 % Dose and the “Percent Recovery of total radioactivity” value ([2]; Total urine + feces (0-168 h), Rat 03, 15 mg/kg IV) was 95.2 % Dose. The “Percent Recovery of total radioactivity” value ([2]; Urine 0-8 h, Mean, 15 mg/kg IV) was 31.0 % Dose, the “Percent Recovery of total radioactivity” value ([2]; Urine 0-8 h, Rat 01, 15 mg/kg IV) was 33.0 % Dose and the “Percent Recovery of total radioactivity” value ([2]; Urine 0-8 h, Rat 02, 15 mg/kg IV) was 29.3 % Dose. For the same molecule, the “Percent Recovery of total radioactivity” value ([2]; Urine 0-8 h, Rat 03, 15 mg/kg IV) was 30.7 % Dose, the “Percent Recovery of total radioactivity” value ([2]; Urine 8-24 h, Mean, 15 mg/kg IV) was 12.8 % Dose and the “Percent Recovery of total radioactivity” value ([2]; Urine 8-24 h, Rat 01, 15 mg/kg IV) was 10.7 % Dose. The “Percent Recovery of total radioactivity” value ([2]; Urine 8-24 h, Rat 02, 15 mg/kg IV) was 11.5 % Dose, the “Percent Recovery of total radioactivity” value ([2]; Urine 8-24 h, Rat 03, 15 mg/kg IV) was 16.2 % Dose and the “Percent Recovery of total radioactivity” value ([2]; Urine 24-48 h, Mean, 15 mg/kg IV) was 4.1 % Dose. The “Percent Recovery of total radioactivity” value ([2]; Urine 24-48 h, Rat 01, 15 mg/kg IV) was 4.3 % Dose, the “Percent Recovery of total radioactivity” value ([2]; Urine 24-48 h, Rat 02, 15 mg/kg IV) was 3.6 % Dose and the “Percent Recovery of total radioactivity” value ([2]; Urine 24-48 h, Rat 03, 15 mg/kg IV) was 4.5 % Dose. The “Percent Recovery of total radioactivity” value ([2]; Urine 48-72 h, Mean, 15 mg/kg IV) was 1.7 % Dose, the “Percent Recovery of total radioactivity” value ([2]; Urine 48-72 h, Rat 01, 15 mg/kg IV) was 1.6 % Dose and the “Percent Recovery of total radioactivity” value ([2]; Urine 48-72 h, Rat 02, 15 mg/kg IV) was 1.6 % Dose. The “Percent Recovery of total radioactivity” value ([2]; Urine 48-72 h, Rat 03, 15 mg/kg IV) was 1.9 % Dose, the “Percent Recovery of total radioactivity” value ([2]; Urine 72-96 h, Mean, 15 mg/kg IV) was 0.8 % Dose and the “Percent Recovery of total radioactivity” value ([2]; Urine 72-96 h, Rat 01, 15 mg/kg IV) was 0.8 % Dose. The “Percent Recovery of total radioactivity” value ([2]; Urine 72-96 h, Rat 02, 15 mg/kg IV) was 0.8 % Dose, the “Percent Recovery of total radioactivity” value ([2]; Urine 72-96 h, Rat 03, 15 mg/kg IV) was 0.8 % Dose and the “Percent Recovery of total radioactivity” value ([2]; Urine 96-120 h, Mean, 15 mg/kg IV) was 0.4 % Dose. The “Percent Recovery of total radioactivity” value ([2]; Urine 96-120 h, Rat 01, 15 mg/kg IV) was 0.4 % Dose, the “Percent Recovery of total radioactivity” value ([2]; Urine 96-120 h, Rat 02, 15 mg/kg IV) was 0.3 % Dose and the “Percent Recovery of total radioactivity” value ([2]; Urine 96-120 h, Rat 03, 15 mg/kg IV) was 0.5 % Dose. The “Percent Recovery of total radioactivity” value ([2]; Urine 120-144 h, Mean, 15 mg/kg IV) was 0.2 % Dose, the “Percent Recovery of total radioactivity” value ([2]; Urine 120-144 h, Rat 01, 15 mg/kg IV) was 0.2 % Dose and the “Percent Recovery of total radioactivity” value ([2]; Urine 120-144 h, Rat 02, 15 mg/kg IV) was 0.2 % Dose. For the same molecule, the “Percent Recovery of total radioactivity” value ([2]; Urine 120-144 h, Rat 03, 15 mg/kg IV) was 0.3 % Dose, the “Percent Recovery of total radioactivity” value ([2]; Urine 144-168 h, Mean, 15 mg/kg IV) was 0.2 % Dose and the “Percent Recovery of total radioactivity” value ([2]; Urine 144-168 h, Rat 01, 15 mg/kg IV) was 0.2 % Dose. For the same molecule, the “Percent Recovery of total radioactivity” value ([2]; Urine 144-168 h, Rat 02, 15 mg/kg IV) was 0.1 % Dose, the “Percent Recovery of total radioactivity” value ([2]; Urine 144-168 h, Rat 03, 15 mg/kg IV) was 0.2 % Dose and the “Percent Recovery of total radioactivity” value ([2]; Urine Subtotal (0-168 h), Mean, 15 mg/kg IV) was 51.2 % Dose. The “Percent Recovery of total radioactivity” value ([2]; Urine Subtotal (0-168 h), Rat 01, 15 mg/kg IV) was 51.2 % Dose, the “Percent Recovery of total radioactivity” value ([2]; Urine Subtotal (0-168 h), Rat 02, 15 mg/kg IV) was 47.5 % Dose and the “Percent Recovery of total radioactivity” value ([2]; Urine Subtotal (0-168 h), Rat 03, 15 mg/kg IV) was 55.1 % Dose. The “Fecal excretion in first 24 h” value ([2]; rat, in vivo) was 36.7 % of the dose, the “Fecal excretion in first 24 h, share of radioactivity excreted in feces” value ([2]; rat, in vivo) was 87% and the “Share of urinary and fecal excretion in first 24 h” value ([2]; rat, in vivo) was about 86%. The “Urinary excretion in first 24 h” value ([2]; rat, in vivo) was 43.8 % of the dose and the “Urinary excretion in first 24 h, share of radioactivity excreted in urine” value ([2]; rat, in vivo) was 86%.
